Source: patent US12258561B2, “Compositions and methods to promote bone formation and their uses including for the treatment of cancer” (THE RESEARCH FOUNDATION FOR THE STATE UNIVERSITY OF NEW YORK, priority 2014, dated 2025)
“Also recorded” adds a separate entry of the source.

Experiments:
[1] = tested on: SaO52 osteosarcoma tumor cells; assay: Assay of cell number (MTT), osteosarcoma cells; type: cell-based
Excerpt: (§1) Methods: Human bone marrow was collected from consenting adult patients undergoing either an elective primary proximal femoral total hip arthroplasty or elective primary distal femoral total knee arthroplasty (n=6, mean age 65) as a part of an IRB approved study. Human MSC were derived from the adherent fraction of whole bone marrow aspirates. Ewing's sarcoma tumor cells (RDES, Hs822 and Hs863) and SaOS2 osteosarcoma tumor cells were obtained from ATCC. Cells were maintained in Dulbecco's Modification of Eagle's Media (DMEM) containing 10% fetal calf serum (v/v) and 1% penicillin-streptomycin-glutamine (PSG; Cellgro, Mediatech).
(§2) Assay of Cell Number: Following the addition of 1-mM naloxone or 1-mM naltrexone, viable cell number was determined with the MTT assay. After 72-hours and 120-hours, MTT (5 mg/ml (w/v), Sigma) was added to each well, incubated for 2-hours, after which the cells lysed with 500-μl of DMSO (Sigma). MTT was measured at 570-nm and the effects of therapy on cell proliferation were determined by normalizing treated wells relative to mean values from non-treated wells: Fold change in cell number=100*[treated cells optical density/mean control optical density].

[2] = tested on: RDES Ewing's sarcoma of bone tumor cells; assay: Assay of cell number (MTT), RDES cells; type: cell-based
Excerpt: as §1, §2

[3] = tested on: monocytes cultured to become osteoclasts; assay: TRAP staining and assay of osteoclast number; type: cell-based, human, mouse
Protocol: TRAP Staining and the Assay of Osteoclast Number: Osteoclasts were derived from either an enriched population of human monocytes or from mouse non-enriched whole bone marrow aspirates. Three human patient bone marrow samples were assayed in parallel with samples collected from 3-week (n=10) mouse bone marrow. The monocyte fraction was stimulated to become osteoclasts by culturing 1×10^6 cells with 25-ng/mL of MCSF and 25-ng/mL of recombinant human or mouse RANK-ligand (R&D Systems) in the presence of the met5-ligand ([5-μM] 2.87-, or [50-μM] 28.7-μg; Sigma), naloxone (400-ng or 400-μg; Sigma) or naltrexone (378-ng or 378-μg; Sigma). Osteoclasts were stained with tartrate resistant acid phosphatase (TRAP; Sigma Leukocyte Acid Phosphatase Kit 387-A) and counted when cells stained TRAP-positive and had at least three nuclei. Estimates of osteoclast number were obtained by Cavalieri sampling and a modification of the fractionator technique.

[4] = tested on: unicortical defect in mouse tibia; assay: Opioid antagonist containing collagen implant in unicortical defect model, microCT; type: in vivo, C57BL/6 mice; conditions: 7 days after surgery
Excerpt: Implantation of Opioid Antagonist Containing Collagen Implant into a Unicortical Defect Model: Male 5-week old C57BL/6 mice (n=5 per treatment group for a total of 25 total animals) were used in this study. […] Unicortical defects were surgically administered through a small incision (approximately 3-mm) made just below the knee joint, located on the medial side of the tibia just below the tibial tuberosity on the tibial crest. In 5-weeks old male mice, the physeal plate is clearly visible and the drill bit was placed approximately 1-mm below this point. The drill-bit produces a unicortical defect with dimensions 300-μm diameter×1-mm depth. […] In parallel, a separate group of animals served as non-surgical controls. Mice were euthanized 7-days after surgery, hind limbs were collected and tibias were prepared for micro-CT (μCT) analysis.
(§3) MicroCT Analysis of Unicortical Defects: High-resolution images of the tibia were acquired with μCT imaging system (μT40; Scanco Medical). Tibias were scanned at 45-keV with an isotropic voxel size of 12-μm. An analysis region was selected from axial sections to include the entire unicortical defect bounded by the endosteal cortical wall. The volume corrected bone volume (bone volume/total volume; By/Tv), trabecular number (TbN) and trabecular thickness (TbTh) were calculated using the Scanco software.

[5] = tested on: MSC cultures induced to become osteoblasts; assay: Osteogenesis: mineral formation in MSC with osteoinduction media (alizarin red-S staining); type: cell-based, human
Excerpt: Methods: Human Bone Marrow was Collected from Consenting Adult Patients undergoing either an elective primary proximal femoral total hip arthroplasty or elective primary distal femoral total knee arthroplasty (n=6, mean age 65) as a part of an IRB approved study. Human MSC were derived from the adherent fraction of cells derived from each whole bone marrow aspirate collected, while the monocyte population was collected from the non-adherent fraction of the bone marrow. The monocyte fraction was enriched through sub-culture with 100-ng/mL recombinant human macrophage colony-stimulating factor (MCSF; Wyeth). In parallel experiments described below, the femurs from 3-week (n=10) and 16-week (n=20) old male mice were collected and then the bone marrow was flushed from the femur according to the following: A 21-gauge needle was inserted into the femoral intramedular canal after the removal of the proximal and distal ends of the femur. Media was then carefully passed through the proximal end of the femur, which forced the bone marrow to pass out of the bone. Finally, the bone marrow pellet was mechanically disassociated using an 18-gauge needle and then passed through a 70-μm mesh filter. These whole bone marrow aspirates were used to generate osteoclasts. Cells were maintained in Dulbecco's Modification of Eagle's Media (DMEM) containing 10% fetal calf serum (v/v) and 1% penicillin-streptomycin-glutamine (PSG; Cellgro, Mediatech). […] The responsible IACUC committee approved all of the animal studies described in this work.
Osteogenesis: Osteogenic potential in MSC was assayed by chemically inducing mineral formation. MSC from at least three human patients were seeded at 5×10^3 cells per well and allowed to become confluent and woven prior to the addition of osteo-induction media. Induction media consisted of DMEM containing 20% FCS (v/v) and 1% PSG supplemented with 25-μg/mL of acscorbic-2-phosphate (Sigma), 100-nM dexamethasone (Sigma) and the following dosing regimen of β-glycerophosphate (BGP; Sigma): 1× media change with 5-mM BGP, 1× media change with 10-mM BGP and 1× media change with 20-mM of BGP. Met5-ligand (0-, [5-μM] 2.87-, or [50-μM] 28.7-μg; Sigma), naloxone (0-, 400-fg, 400-pg, 400-ng, 400-μg; Sigma) or naltrexone (0-, 378-fg, 378-pg, 378-ng, 378-μg; Sigma) was added as follows: 1) 1×, with the first addition of osteo-induction media, 2) 2×, with the first and second addition of osteo-induction media and 3) with each post-induction media change. […] After the appearance of mineral nodules, cells were fixed with 70% ice-cold EtOH (Sigma) and then stained using 40-mM alizarin red-S (pH 4.2, Sigma). Osteogenesis experiments were repeated at least twice for each patient.

[6] = tested on: Hs822t Ewing's sarcoma of bone tumor cells; assay: Assay of cell number (MTT), Hs822t cells; type: cell-based
Excerpt: as §1, §2

[7] = tested on: unicortical defect in mouse tibia; assay: Unicortical defect model, direct injection, microCT; type: in vivo, C57BL/6 mice; conditions: naloxone 1-mM or met5 50-μM
Protocol: Unicortical Defect Model: Male 3-week old C57BL/6 mice (n=5 per treatment group) were injected with met5, naloxone or naltrexone following the creation of a unicortical defect. Briefly, a small incision (approximately 3-mm) was made just below the knee joint, located on the medial side of the tibia just below the tibial tuberosity on the tibial crest. In young animals the physeal plate is clearly visible and the drill bit was placed approximately 1-mm below this point. The drill-bit produces a unicortical defect with dimensions 300-μm diameter×1-mm depth. A Hamilton Neuros RN 10-μL syringe with a 33-gauge blunt tip needle was used to inject 2-μL of met5 (28.7-μg), naloxone (400-μg) or naltrexone (378-μg) resuspended in saline directly into the unicortical defect at a rate no faster than approximately 0.1-μL per second. The left-limb tibias served as contra-lateral surgical controls, in which animals received a unicortical defect and 2-μL of saline was injected. Mice were euthanized 5-days after surgery, hind limbs were collected and tibias were fixed for immunofluorescence, TRAP staining and OTC associated bone growth.
as §3

[8] = collagen implant, 25-ng BMP2, 1-mM naltrexone or 1-mM naloxone
[9] = 50-μM met5 with collagen implant

Molecule | SaO52 osteosarcoma cell number relative to control cultures ([1]; 1-mM, seventy-two hours) | RDES tumor cell number relative to control cultures ([2]; 1-mM, seventy-two hours) | osteoclast number (TRAP staining) ([3]; 1-mM) | osteoclast number (TRAP staining) ([3]; 1-μM) | Bv/Tv relative to non-surgical controls ([4]; collagen implant) | trabecular thickness (TbTh) relative to the control non-surgical group ([4]; collagen implant) | Bv/Tv compared with the BMP2 treated group ([4]; collagen implant, 1-mM) | increase in Bv/Tv relative to the PBS treated group [4, 8] [%] | increase in Bv/Tv relative to the surgical control group [4, 8] [%] | mineral accumulation (red staining) ([5]; between 1-μM and 1-mM with osteoinduction media) | Hs822t tumor cell number relative to control cultures ([6]; 1-mM, seventy-two hours) | SaO52 osteosarcoma cell number ([1]; met5) | RDES tumor cell number ([2]; met5) | osteoclast number (TRAP staining) ([3]; met5, relative to control osteoclast cultures) | Bv/Tv greater than the non-surgical control group [4, 9] | fracture healing (Bv/Tv) compared with the surgical control group [4, 9] | mineral accumulation ([5]; 5-μM met5 added to osteoinduction media) | mineral accumulation ([5]; 50-μM met5 added to osteoinduction media) | Hs822t tumor cell number ([6]; 50-μM of met5) | bone healing [7]
O=C1CC[C@@]2(O)[C@H]3Cc4ccc(O)c5c4[C@@]2(CCN3CC2CC2)[C@H]1O5 [naltrexone] | decreased significantly | decreased significantly | reduced osteoclast number substantially | did not significantly reduce osteoclast number | increased relative to non-surgical controls | increased within the defect significantly | no significant difference | 39.2 | 63.5 | increased mineral, but to a lesser extent than naloxone | decreased relative to the control cultures |  |  |  |  |  |  |  |  | 
Tyr-Gly-Gly-Phe-Met (YGGFM; printed: Tyr-Gly-Gly-Phe-Met) [met5, opioid growth factor (OGF or met-5 enkephalin), the native ligand for the OGFR] |  |  |  |  |  | increased within the defect significantly |  |  |  |  |  | had not effect on cell number | no effect | unaffected | approximately 37% | not significantly different | no effect on mineral formation in culture; also recorded: no effect on mineral accumulation | no effect on mineral formation in culture; also recorded: decreased mineral accumulation slightly | significant increase | no effect
